“And” between values parts separate entries of the source, which are not always exact repeats. Identical values can stand only once.
Key:
TAR RNA = experiment: Fluorescence anisotropy: RhdRev binding and AAC competition for TAR RNA; parameters: species or system HIV-1; settings: for Kd: competition of AACs with RhdRev (10 nM) for TAR RNA (20 nM) binding, 85 mM NaCl; for IC50: competition of AACs with RhdRev for TAR RNA binding; for competition with RhdRev for TAR RNA binding (in words): up to 20 μM of AAC
RRE IIB RNA = experiment: Fluorescence anisotropy: RhdRev binding and AAC competition for RRE IIB RNA; parameters: species or system HIV-1; settings: for Kd: competition of AACs with RhdRev (10 nM) for RRE IIB RNA (20 nM) binding, 85 mM NaCl; for IC50: competition of AACs with RhdRev for RRE IIB RNA binding
CXCR4 = target: T1, CXCR4 (Homo sapiens, UniProt P61073); experiment: Inhibition of anti-CXCR4 mAb 12G5 binding to cells, flow cytometry; type: cell-based; settings: for reduction of 12G5 mAb binding to the cells: 10 μM AAC, PM1 cells, 30 min at 4° C.; for inhibition of mAb 12G5 or SDF-1α binding to CXCR4, % of the NeoR6 activity: in comparison to NeoR6
T1 construct: endogenous in cells; host or cells: PM1 cells and PBMC
T1 sequence (P61073 whole entry): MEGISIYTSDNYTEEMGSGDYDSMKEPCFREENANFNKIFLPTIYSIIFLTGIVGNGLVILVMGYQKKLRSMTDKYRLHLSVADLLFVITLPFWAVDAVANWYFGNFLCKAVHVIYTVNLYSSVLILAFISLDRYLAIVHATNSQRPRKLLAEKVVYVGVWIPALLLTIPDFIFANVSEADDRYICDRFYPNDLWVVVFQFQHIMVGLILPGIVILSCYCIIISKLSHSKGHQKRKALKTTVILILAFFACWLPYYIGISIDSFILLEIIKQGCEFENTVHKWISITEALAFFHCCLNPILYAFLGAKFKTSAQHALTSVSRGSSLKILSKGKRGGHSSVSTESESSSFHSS
Protocol: FIGS. 11a–d are graphs depicting the binding of AACs to CXCR4 in the presence of anti CXCR4 antibody (12G5). PM1 cells were incubated with PE-conjugated isotype control mAb, PE-anti CXCR4 conjugated mAb (12G5) alone, or in the presence of the indicated AACs for 30 min at 4° C. The cells were then washed twice with PBS and analyzed by flow cytometry. The MFI values are shown in parenthesis.
Interaction of AACs with CXCR4 was determined by flow cytometry (FACScan, Becton Dickinson) as described recently (Litovchick et al., 2001, supra). Briefly, 0.5×10^6 cells were washed in ice-cold PBS containing 0.1% sodium azide (wash buffer) and incubated at 4° C. with anti-CXCR4 mAb, 12G5 (PharMingen, San Diego, Calif.) conjugated to phycoerithrine (PE), in the absence or presence of different concentrations of the AACs. After 30 min of incubation, the cells were washed with ice-cold wash buffer and fixed in PBS containing 1% paraformaldehyde. Non-specific fluorescence was assessed by using isotype-matched control. For each sample 10,000 events were acquired. Data were analyzed and processed using CellQuest™ software (Becton Dickinson).

MT-2 cells = experiment: Cellular uptake competition of AACs with NeoR6-FITC, flow cytometry; type: cell-based; settings: for competition with NeoR6-FITC uptake (in words): 100 fold excess of non-labeled AAC; for inhibition of NeoR6-FITC uptake, less affinity than NeoR6: 100 fold excess of non-labeled AAC over 0.5 μM NeoR6-FITC
Protocol: Following 15 minutes of incubation at room temperature, the cells were washed twice with ice-cold PBS and fixed in PBS containing 1% paraformaldehyde. Fluorescence was analyzed using flow cytometry.
After 5 or 15 min of incubation at room temperature, the cells were washed twice with ice-cold PBS and fixed in PBS containing 1% paraformaldehyde. The fluorescence was then analyzed by flow cytometry (FACScan, Becton Dickinson Imunocytometry Systems, San Jose, Calif., USA). For each sample 10,000 events were acquired. Data were analyzed and processed.

PM1 cells = experiment: Inhibition of FITC-labeled AAC uptake by SDF-1α, flow cytometry; type: cell-based; settings: for MFI of FITC-AAC uptake: background MFI of 10; for inhibition of cell uptake by SDF-1α: PM1 cells
Protocol: Following 20 minutes at room temperature the cells were washed twice with PBS and analyzed by flow cytometry.
Following 30 minutes of incubation, cells were washed with ice-cold wash buffer and analyzed by flow cytometry as described above.

[1] = test system: U38, PM1, H9 cells and PBMC; experiment: Cellular uptake of AAC-FITC fluorescent probes, fluorescence microscopy; type: cell-based; settings: 0.5 μM, 10 minutes of incubation
Protocol: Images were obtained using a Zeiss Axiophot microscope.
Cellular uptake using AAC fluorescent probes—U38, PM1, H9 cells and PBMC(10^5) were incubated for 20 minutes at room temperature in 100 μl RPMI 1640 medium (Gibco-BRL, Life-Technologies, UK) including AAC-FITC derivatives as indicated at a final concentration of 0.5 μM. Cells were washed twice, resuspended in 100 μl medium and analyzed with a Zeiss Axiophot fluorescent microscope.

cMAGI cells = experiment: Competition between FITC-labelled AACs and RANTES; type: cell-based; settings: 2.5 mM RANTES
Protocol: Competition between FITC labelled AACs (1 mM) and RANTES (2.5 mM, Pepro Tech Inc., New Jersey, USA) was effected in 2×10^5 cMAGI cells. Following 30 min of incubation, cells were washed with ice-cold wash buffer and analysed by flow cytometry as described above.

CD4 = target: T2, CD4 (Homo sapiens, UniProt P01730); settings: PHA stimulated peripheral blood lymphocytes; cited from earlier work
T2 construct: in PHA stimulated peripheral blood lymphocytes (PBL); host or cells: PHA stimulated peripheral blood lymphocytes (PBL)

[2] = test system: lymphocytes, PBMC and neurons; settings: cited from earlier work
CCR5 = target: T3, CCR5 (Homo sapiens, UniProt P51681); settings: PHA stimulated peripheral blood lymphocytes; cited from earlier work
T3 construct: in PHA stimulated peripheral blood lymphocytes (PBL); host or cells: PHA stimulated peripheral blood lymphocytes (PBL)
T3 sequence (P51681 whole entry): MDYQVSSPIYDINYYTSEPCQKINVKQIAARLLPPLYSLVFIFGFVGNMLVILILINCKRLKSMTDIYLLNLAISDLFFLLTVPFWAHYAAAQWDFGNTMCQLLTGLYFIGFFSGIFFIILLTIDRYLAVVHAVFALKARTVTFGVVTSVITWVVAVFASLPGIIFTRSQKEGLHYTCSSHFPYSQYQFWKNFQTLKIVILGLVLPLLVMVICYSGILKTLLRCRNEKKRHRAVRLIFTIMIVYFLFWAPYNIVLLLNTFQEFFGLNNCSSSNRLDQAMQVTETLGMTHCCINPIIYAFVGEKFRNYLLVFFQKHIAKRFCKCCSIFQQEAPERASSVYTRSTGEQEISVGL

With `CC(=O)O.N=C(N)NCCCC(N)C(=O)NCC1OC(OC2C(N)CC(N)C(O)C2O)C(N)C(O)C1O` (stereo not shown) [NeamR1, argininamido-neamine conjugate] as the molecule, how does the Kd (TAR RNA) read?
The Kd was over 0.5 µM.

And the IC50 (TAR RNA)?
Its IC50 is over 0.5 µM.

And the Kd (RRE IIB RNA)?
The Kd was 0.233 ± 0.0045 µM.

What about the IC50 (RRE IIB RNA) of the same molecule?
Its IC50 is 0.342 ± 0.0295 µM.

What about the “reduction of 12G5 mAb binding to the cells” value (from here on “reduction of 12G5 mAb binding”) (CXCR4) of the same molecule?
Its value is 5%.

And the “competition with NeoR6-FITC uptake (in words)” value (MT-2 cells)?
Its value is “did not compete”.

With `CC(=O)O.N=C(N)NCCCC(N)C(=O)NCC1OC(OC2C(NC(=O)C(N)CCCNC(=N)N)CC(NC(=O)C(N)CCCNC(=N)N)C(O)C2O)C(NC(=O)C(N)CCCNC(=N)N)C(O)C1O` (stereo not shown) [NeamR4, Neamine tetra-arginine conjugate] as the molecule, how does the Kd (TAR RNA) read?
The Kd was 0.03 µM and 0.0301 µM.

What about the IC50 (TAR RNA) of the same molecule?
Its IC50 is 0.0828 ± 0.0077 µM.

What about the “folds less active / times weaker than NeoR6, TAR binding” value (TAR RNA; ratio of KD to that of NeoR6) of the same molecule?
The value was 6.

And the “competition with RhdRev for TAR RNA binding (in words)” value (TAR RNA)?
The value was “efficiently competed”.

What about the “MFI of FITC-AAC uptake” value (PM1 cells; 62.5 nM SDF-1α) of the same molecule?
The value was 56.

And the “inhibition of cell uptake by SDF-1α” value (PM1 cells; 125 nM SDF-1α)?
The value was “about 50%”.

And the “MFI of FITC-AAC uptake” value (PM1 cells; 125 nM SDF-1α)?
The value was 52.

What about the “MFI of FITC-AAC uptake” value (PM1 cells; 250 nM SDF-1α) of the same molecule?
Its value is 50.

What about the “MFI of FITC-AAC uptake” value (PM1 cells; without SDF-1α) of the same molecule?
The value was 96.

What about the Kd (RRE IIB RNA) of the same molecule?
Its Kd is 0.055 µM and 0.0547 µM.

What about the IC50 (RRE IIB RNA) of the same molecule?
The IC50 was 0.119 ± 0.0135 µM.

What about the “cellular uptake of FITC-labeled AAC by PM1 cells” value [1] of the same molecule?
The value was “uptaken by PM1 cells”.

And the “reduction of 12G5 mAb binding” value (CXCR4)?
The value was 60%.

And the “inhibition of mAb 12G5 or SDF-1α binding to CXCR4, % of the NeoR6 activity” value (from here on “inhibition … % of the NeoR6 activity”) (CXCR4)?
Its value is 70%.

And the “effect of RANTES on uptake of FITC derivative” value (cMAGI cells)?
The value was “did not affect uptake”.

And the “inhibition of NeoR6-FITC uptake, less affinity than NeoR6” value (“inhibition … less affinity than NeoR6” for short) (MT-2 cells)?
Its value is “about 50%”.

For `CC(=O)O.N=C(N)NCCCC(N)C(=O)NCC1OC(OC2C(CO)OC(OC3C(O)C(N)CC(N)C3OC3OC(CNC(=O)C(N)CCCNC(=N)N)C(O)C(O)C3N)C2O)C(N)C(O)C1O` (stereo not shown) [NeoR2, diargininamido-neomycin B conjugate], which Kd (TAR RNA) is on record?
The Kd was over 0.5 µM.

And the IC50 (TAR RNA)?
Its IC50 is over 0.5 µM.

And the Kd (RRE IIB RNA)?
The Kd was 0.112 ± 0.0037 µM.

And the IC50 (RRE IIB RNA)?
The IC50 was 0.208 ± 0.0211 µM.

And the “reduction of 12G5 mAb binding” value (CXCR4)?
The value was 48%.

And the “inhibition … % of the NeoR6 activity” value (CXCR4)?
The value was 55%.

What about the “inhibition … less affinity than NeoR6” value (MT-2 cells) of the same molecule?
Its value is “about 50%”.

Which results are given for `CC(=O)O.N=C(N)NCCCC(N)C(=O)NCC1OC(OC2C(CO)OC(OC3C(O)C(N)CC(N)C3OC3OC(CO)C(O)C(O)C3N)C2O)C(N)C(O)C1O` (stereo not shown) [ParomR1, argininamido-paramomycin conjugate]?
Kd (TAR RNA): > 0.5 µM; IC50 (TAR RNA): > 0.5 µM; Kd (RRE IIB RNA): 0.254 ± 0.0078 µM; IC50 (RRE IIB RNA): 0.407 ± 0.041 µM; reduction of 12G5 mAb binding to the cells (CXCR4): 16%; competition with NeoR6-FITC uptake (in words) (MT-2 cells): did not compete

With `CC(=O)O.N=C(N)NCCCC(N)C(=O)NCC1OC(OC2C(CO)OC(OC3C(O)C(NC(=O)C(N)CCCNC(=N)N)CC(NC(=O)C(N)CCCNC(=N)N)C3OC3OC(CO)C(O)C(O)C3NC(=O)C(N)CCCNC(=N)N)C2O)C(NC(=O)C(N)CCCNC(=N)N)C(O)C1O` (stereo not shown) [ParomR5, pentaargininamido-paromomycin conjugate] as the molecule, how does the Kd (TAR RNA) read?
Its Kd is 0.015 µM and 0.0151 µM.

What about the IC50 (TAR RNA) of the same molecule?
Its IC50 is 0.0343 ± 0.0057 µM.

And the “competition with RhdRev for TAR RNA binding (in words)” value (TAR RNA)?
The value was “efficiently competed”.

And the “MFI of FITC-AAC uptake” value (PM1 cells; 62.5 nM SDF-1α)?
Its value is 83.

And the “inhibition of cell uptake by SDF-1α” value (PM1 cells; 125 nM SDF-1α)?
The value was “about 50%”.

And the “MFI of FITC-AAC uptake” value (PM1 cells; 125 nM SDF-1α)?
The value was 59.

What about the “MFI of FITC-AAC uptake” value (PM1 cells; 250 nM SDF-1α) of the same molecule?
The value was 53.

What about the “MFI of FITC-AAC uptake” value (PM1 cells; without SDF-1α) of the same molecule?
The value was 104.

And the Kd (RRE IIB RNA)?
The Kd was 0.096 µM and 0.0959 µM.

And the IC50 (RRE IIB RNA)?
Its IC50 is 0.149 ± 0.0123 µM.

What about the “times weaker than NeoR6, RRE IIB binding” value (RRE IIB RNA; ratio of KD to that of NeoR6) of the same molecule?
Its value is “about 4”.

And the “cellular uptake of FITC-labeled AAC by PM1 cells” value [1]?
Its value is “uptaken by PM1 cells”.

What about the “reduction of 12G5 mAb binding” value (CXCR4) of the same molecule?
The value was 81%.

And the “inhibition … % of the NeoR6 activity” value (CXCR4)?
The value was 90%.

And the “effect of RANTES on uptake of FITC derivative” value (cMAGI cells)?
The value was “did not affect uptake”.

What about the “inhibition of NeoR6-FITC uptake, less efficient than NeoR6” value (MT-2 cells; 40 fold excess of non-labeled AAC) of the same molecule?
The value was “about 50%”.

What about the “inhibition … less affinity than NeoR6” value (MT-2 cells) of the same molecule?
The value was “about 50%”.

Which “inhibition of binding of anti CD4 antibody (Leu 3a)” value (CD4) does the source give for `NC(N)=NCCC[C@H](N)C(=O)NC[C@H]1O[C@H](O[C@H]2C(O)[C@@H](O[C@H]3O[C@H](CO)[C@@H](O)[C@H](NC(=O)[C@@H](N)CCCN=C(N)N)[C@H]3O)[C@H](NC(=O)[C@@H](N)CCCN=C(N)N)C[C@@H]2NC(=O)[C@@H](N)CCCN=C(N)N)[C@H](O)[C@@H](O)[C@@H]1O` (stereo partly shown) [R4K] here?
Its value is “neither R3G nor R4K or NeoR6 inhibit the binding”.

And the accumulation in cells [2]?
The accumulation in cells was “accumulate in different cell types”.

And the “inhibition of binding of 2D7, a mAb directed to CCR5” value (CCR5)?
Its value is “neither R3G nor R4K or NeoR6 inhibit the binding”.
